From patent publication US20060287320A1, “Preparation of thioarabinofuranosyl compounds and use thereof” (Southern Research Institute, priority 1998, published 2006)

What was measured:
CAK1-1 Renal = assay: In vitro IC50, 72 hour exposure, Natural Red assay; assay type: cell-based; conditions: read-out: IC50 Molar Values
Procedure: (§1) EXAMPLE 3 The following in vitro tests were carried out.
(§2) The above tests were carried out with a 72 hour exposure to the compound using Natural Red assay for all cell lines except SK-MEL 28 which was done with SRB assay.

DLD-1 Colon = assay: In vitro IC50, 72 hour exposure, Natural Red assay; assay type: cell-based; conditions: Homo sapiens, read-out: IC50 Molar Values
Procedure: as §1, §2

LOX IMV1 Melanoma = assay: In vitro IC50, 72 hour exposure, Natural Red assay; assay type: cell-based; conditions: read-out: IC50 Molar Values
Procedure: as §1, §2

NC1-H23 Lung = assay: In vitro IC50, 72 hour exposure, Natural Red assay; assay type: cell-based; conditions: read-out: IC50 Molar Values
Procedure: as §1, §2

PC-3 Prostate = assay: In vitro IC50, 72 hour exposure, Natural Red assay; assay type: cell-based; conditions: read-out: IC50 Molar Values
Procedure: as §1, §2

SNB-7 (CNS) = assay: In vitro IC50, 72 hour exposure, Natural Red assay; assay type: cell-based; conditions: Homo sapiens, read-out: IC50 Molar Values
Procedure: as §1, §2

ZR-75-1 Mammary = assay: In vitro IC50, 72 hour exposure, Natural Red assay; assay type: cell-based; conditions: Homo sapiens, read-out: IC50 Molar Values
Procedure: as §1, §2

SK-MEL 28 Melanoma = assay: In vitro IC50, 72 hour exposure, SRB assay; assay type: cell-based; conditions: Homo sapiens, read-out: IC50 Molar Values
Procedure: as §1, §2

SC Colon 36 Tumor = assay: Response of SC Colon 36 Tumor to Treatment; assay type: in vivo; conditions: 8 Mg/Kg IP, Q 4H × 3 day 9-17
Procedure: (§3) The following in vivo tests were carried out to illustrate the effectiveness of the compounds of the present invention.

SC CAKI-1 Renal Tumor = assay: Response of SC CAKI-1 Renal Tumor to Treatment; assay type: in vivo; conditions: Q 4H × 3 day 7-15
Procedure: as §3

SC HCT-116 Colon Tumor = assay: Response of SC HCT-116 Colon Tumor to Treatment; assay type: in vivo; conditions: Q 4H × 3 day 6-14
Procedure: as §3

CEM cells (wild-type) [1] = assay: Metabolism of dCyd and analogs in wild-type CEM cells; assay type: cell-based; conditions: WT CEM cells; 100 nM; incubation time 1 hour
Procedure: (§4) The radioactivity in the 5′-triphosphate peak and the incorporation of radioactivity in the acid-insoluble fraction (DNA) was determined.

araC-resistant CEM cells [2] = assay: Metabolism of dCyd and analogs in araC-resistant CEM cells; assay type: cell-based; conditions: 100 nM, incubation time 1 hour
Procedure: as §4

[3] = Phosphorylation in cell-free CEM extracts, wild-type; assay type: biochemical; conditions: wild-type CEM cell extract; 1 μm substrate
Procedure: (§5) The number in parentheses is the number of experiments performed. […] At various times after the initiation of the experiment, an aliquot of each reaction volume was removed and placed on DE-81 filters. The filters were washed with 1 mM ammonium formate and ethanol, and the amount of radioactivity on each filter was determined. […] This assay was verified by HPLC.

[4] = Phosphorylation in cell-free CEM extracts, araC-resistant; assay type: biochemical
Procedure: as §5

[5] = biological target: T1, dCyd Kinase Activity Isolated from Molt-4 Cells (Homo sapiens, UniProt P27707); assay: Substrate characteristics with dCyd kinase activity isolated from Molt-4 cells; assay type: biochemical; conditions: dCyd kinase activity from Molt-4 cells
T1 construct: endogenous in cells; host or cells: Molt-4 cells (enzyme purified from the cells)
T1 sequence (P27707 whole entry): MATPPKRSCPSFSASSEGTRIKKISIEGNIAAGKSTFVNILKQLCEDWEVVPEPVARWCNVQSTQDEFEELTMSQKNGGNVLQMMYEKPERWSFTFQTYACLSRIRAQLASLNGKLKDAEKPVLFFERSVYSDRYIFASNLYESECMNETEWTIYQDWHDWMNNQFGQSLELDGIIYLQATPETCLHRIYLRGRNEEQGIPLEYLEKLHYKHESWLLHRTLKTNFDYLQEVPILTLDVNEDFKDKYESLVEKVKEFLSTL
Procedure: Each assay was done in duplicate and the kinetic constants were determined from linear double-reciprocal plots of 1/velocity versus 1/concentration of the substrate. The best line was determined by linear regression from at least 5 datum points, and the Km and Vmax were determined from the x and y intercepts.

CEM cells [6] = assay: Complete metabolism of dCyd, T-dCyd, araC and T-araC in CEM cells; assay type: cell-based; conditions: 100 nM, incubation 24 hours
Procedure: The complete metabolism of each compound was determined: The medium was analyzed for the original compound, its deaminated form using reverse phase HPLC, and H20; the acid-soluble extract was analyzed by SAX HPLC for phosphorylated metabolites; and the incorporation of radioactivity into acid-precipitable material (DNA) was determined.

CEM cells [7] = assay: Effect of F-dUrd on metabolism (deamination) in CEM cells; assay type: cell-based; conditions: 100 nM, incubation time 24 hours
Procedure: The complete metabolism of each compound was determined as described in the legend to Table 12, and the percent of deaminated metabolites for each compound was determined.

[8] = test system: DNA synthesis in CEM cells; assay: Effect on DNA synthesis ([3H]dThd incorporation) in CEM cells; assay type: cell-based; conditions: Homo sapiens, CCRF-CEM, 750 nM, average of two experiments, read-out: DNA synthesis, Percent of control
Procedure: (§6) Radiolabeled precursors of DNA [^3H]dThd, RNA ([^3H]Urd), or protein ([^3H]leucine) were added to each treatment 30 minutes after the addition of each compound. Samples were taken 1, 2, 3 and 4 hours after the addition of radiolabeled precursors, and the incorporation of radioactivity into RNA, DNA, or protein were determined as described (Parker et al, Biochem. Pharmacol. 55: 1673-1681, 1998). Each number represents the average of two experiments.

[9] = test system: RNA synthesis in CEM cells; assay: Effect on RNA synthesis ([3H]Urd incorporation) in CEM cells; assay type: cell-based; conditions: 750 nM, average of two experiments
Procedure: as §6

[10] = test system: protein synthesis in CEM cells; assay: Effect on protein synthesis ([3H]leucine incorporation) in CEM cells; assay type: cell-based; conditions: Homo sapiens, CCRF-CEM, 750 nM, average of two experiments, read-out: protein synthesis, Percent of control
Procedure: as §6

CEM cells (wild-type) [11] = assay: Inhibition of CEM cell growth, wild-type; conditions: Homo sapiens, CCRF-CEM, read-out: IC50 (nM) Wild-type
Procedure: (§7) CEM cells were incubated with various concentrations of each compound and the effect on. cell numbers was determined using a Coulter Counter. The IC50 was determined from a plot of the percent of control growth versus drug concentration. The data presented are the mean and standard deviation from 3 separate experiments.

araC-resistant CEM cells [12] = assay: Inhibition of CEM cell growth, araC-resistant
Procedure: as §7

Nc1ccn([C@@H]2S[C@H](CO)[C@@H](O)[C@@H]2O)c(=O)n1 [T-araC, 1-(4-Thio-β-D-arabinofuranosyl) cytosine]
IC50 (CAK1-1 Renal): 3 µM | IC50 (DLD-1 Colon): 7 µM | IC50 (LOX IMV1 Melanoma): 7 µM | IC50 (NC1-H23 Lung): 5 µM | IC50 (PC-3 Prostate): 8 µM | IC50 (SNB-7 (CNS)): 1 µM | IC50 (ZR-75-1 Mammary): 3 µM | IC50 (SK-MEL 28 Melanoma): 7 µM | Days Delay (T − C) (SC Colon 36 Tumor): >38.5 days | Days to 2 Doubling (SC Colon 36 Tumor): >49.0 days | Non-Specific Deaths/Total (SC Colon 36 Tumor): 0/5 | Tumor Free Surv/Total (SC Colon 36 Tumor): 4/5 | Tumor Regression Number of Complete (SC Colon 36 Tumor): 4 | Tumor Regression Number of Partial (SC Colon 36 Tumor): 0 | Days Delay (T − C) (SC CAKI-1 Renal Tumor; 8 Mg/Kg IP): 41.2 days | Days to 3 Doubling (SC CAKI-1 Renal Tumor; 8 Mg/Kg IP): 50.7 days | Non-Specific Deaths/Total (SC CAKI-1 Renal Tumor; 8 Mg/Kg IP): 0/6 | Tumor Free Surv/Total (SC CAKI-1 Renal Tumor; 8 Mg/Kg IP): 0/6 | Tumor Regression Duration Med (SC CAKI-1 Renal Tumor; 8 Mg/Kg IP): 12.7 days | Tumor Regression Duration Range (SC CAKI-1 Renal Tumor; 8 Mg/Kg IP): 9 to 18 days | Tumor Regression Number of Complete (SC CAKI-1 Renal Tumor; 8 Mg/Kg IP): 4 | Tumor Regression Number of Partial (SC CAKI-1 Renal Tumor; 8 Mg/Kg IP): 1 | Days Delay (T − C) (SC CAKI-1 Renal Tumor; 16 Mg/Kg IP): 50.3 days | Days to 3 Doubling (SC CAKI-1 Renal Tumor; 16 Mg/Kg IP): 59.8 days | Non-Specific Deaths/Total (SC CAKI-1 Renal Tumor; 16 Mg/Kg IP): 1/6 | Tumor Free Surv/Total (SC CAKI-1 Renal Tumor; 16 Mg/Kg IP): 0/6 | Tumor Regression Duration Med (SC CAKI-1 Renal Tumor; 16 Mg/Kg IP): 26.9 days | Tumor Regression Duration Range (SC CAKI-1 Renal Tumor; 16 Mg/Kg IP): 16 to 48 days | Tumor Regression Number of Complete (SC CAKI-1 Renal Tumor; 16 Mg/Kg IP): 5 | Tumor Regression Number of Partial (SC CAKI-1 Renal Tumor; 16 Mg/Kg IP): 0 | Days Delay (T − C) (SC HCT-116 Colon Tumor; 13.3 Mg/Kg IP): >43.1 days | Days to 2 Doubling (SC HCT-116 Colon Tumor; 13.3 Mg/Kg IP): >52.0 days | Non-Specific Deaths/Total (SC HCT-116 Colon Tumor; 13.3 Mg/Kg IP): 0/6 | Tumor Free Surv/Total (SC HCT-116 Colon Tumor; 13.3 Mg/Kg IP): 5/6 | Tumor Regression Duration Med (SC HCT-116 Colon Tumor; 13.3 Mg/Kg IP): 23.6 days | Tumor Regression Duration Range (Days) (SC HCT-116 Colon Tumor; 13.3 Mg/Kg IP): 24-24 Days | Tumor Regression Number of Complete (SC HCT-116 Colon Tumor; 13.3 Mg/Kg IP): 6 | Tumor Regression Number of Partial (SC HCT-116 Colon Tumor; 13.3 Mg/Kg IP): 0 | Days Delay (T − C) (SC HCT-116 Colon Tumor; 20 Mg/Kg IP): >43.1 days | Days to 2 Doubling (SC HCT-116 Colon Tumor; 20 Mg/Kg IP): >52.0 days | Non-Specific Deaths/Total (SC HCT-116 Colon Tumor; 20 Mg/Kg IP): 0/6 | Tumor Free Surv/Total (SC HCT-116 Colon Tumor; 20 Mg/Kg IP): 6/6 | Tumor Regression Number of Complete (SC HCT-116 Colon Tumor; 20 Mg/Kg IP): 6 | Tumor Regression Number of Partial (SC HCT-116 Colon Tumor; 20 Mg/Kg IP): 0 | DNA (CEM cells (wild-type) [1]): 0.0056 pmoles/10^6 cells | Total (CEM cells (wild-type) [1]): 0.2076 pmoles/10^6 cells | DNA (araC-resistant CEM cells [2]): 0.0025 pmoles/10^6 cells | DNA (percent of WT) (araC-resistant CEM cells [2]): 45% of WT | Total (araC-resistant CEM cells [2]): 0.0535 pmoles/10^6 cells | Total (percent of WT) (araC-resistant CEM cells [2]): 26% of WT | Phosphorylation, Wild-type [3]: 0.83 pmoles/mg protein/minute | Phosphorylation, araC-resistant CEM cells ([4]; araC-resistant CEM cell extract, 1 μm substrate): 0.011 pmoles/mg protein/minute | Percent of wild-type ([4]; phosphorylation in araC-resistant vs wild-type CEM extract): 1.3% of wild-type | Relative Vmax [5]: 0.46 | DNA (percent of total) (CEM cells [6]): 0.3% of total | Original Compound (percent of total) (CEM cells [6]): 96% of total | Percent Deamination (CEM cells [7]; F-dUrd 0 μM): 0% | Percent Deamination (CEM cells [7]; F-dUrd 10 μM): 0% | activity at 0.75 µM [8]: 16% | RNA synthesis, Percent of control [9]: 87% of control | activity at 0.75 µM [10]: 72% | IC50 (CEM cells (wild-type) [11]): 24 ± 9 nM | IC50 (araC-resistant CEM cells [12]; Homo sapiens, CCRF-CEM, read-out: IC50 (nM) araC-resistant): 125 ± 84 nM | Resistant/WT (araC-resistant CEM cells [12]; ratio of IC50 araC-resistant / wild-type CEM cells): 5
